# Data taken from patent US20140350370A1, “GLUCOSE SENSING ASSAY” (The Texas A&M University System, priority 2013, published 2014).
# Where two headings read alike, the source gives them in different places.
# How the values were obtained:
# ConA [1] = target: T1, ConA (Canavalia ensiformis, UniProt P02866); conditions: cited from earlier work
# ConA [2] = target: T1, ConA
# Description: To explore whether the interaction of ConA with the core trimannose leads to aggregation in free solution, dynamic light scattering (DLS) measurements were performed. […] The TRIS buffer was 10 mM TRIS, 1 M NaCl, 1 mM CaCl2, 1 mM MnCl2, at pH 7.4. The dextran was 2 MDa and used as received from Sigma.
# As controls, solutions of the individual components were also scanned to determine the particle size in the absence of aggregation. The final concentration was 3 μM for the competing ligand and 3 μM for ConA. Negative controls were run for each competing ligand (3 μM) without ConA present. ConA was also independently added to a separate control cuvette (3 μM). All solutions were in TRIS buffer and were filtered prior to combining the solutions. After 12 hours, the solutions were mixed to allow for the re-suspension of any settled material and dynamic light scattering studies were performed. The reported data is the average particle size as determined by percent-volume.
compound,measurement,setting,value
O=C[C@H](O)[C@@H](O)[C@@H](O)[C@H](O)CO [galactose],affinity to ConA,ConA [1],no affinity
"OC[C@H]1O[C@H](OC[C@H]2OC(O)[C@@H](O)[C@@H](O[C@H]3O[C@H](CO)[C@@H](O)[C@H](O)[C@@H]3O)[C@@H]2O)[C@@H](O)[C@@H](O)[C@@H]1O (stereo partly drawn) [trimannose, 3,6-Di-O-(α-D-mannopyranosyl)-D-mannopyranose]",average size of particles in solution with ConA,"ConA [2]; 3 μM ligand, 3 μM ConA, TRIS buffer, 12 hours, 22° C., DLS",did not increased in size
same,aggregation when paired with ConA,"ConA [2]; summary statement, DLS study",no aggregation
same,affinity to ConA,ConA [1]; previously shown / literature value,~330000 M⁻¹
methyl mannose,binding affinity to ConA relative to glucose,ConA [1]; known value,20-40 times
